Here are results for one molecule from paper PMC10165273, “Itch receptor MRGPRX4 interacts with the receptor activity–modifying proteins” (The Journal of Biological Chemistry, 2023).

Values joined by “and” are separate entries in the source; they are usually repeats but may differ in a detail not shown here. Equal entries are not always repeated.

The target of assay [1] is T1, MRGPRX4 + RAMP1 (Homo sapiens, UniProt Q96LA9).
T1 construct: expressed in transfected cells; host or cells: HEK293T
The experiment in a line: IP1 accumulation, MRGPRX4 coexpressed with RAMP1. Type of assay: cell-based. Also on record: key to IP1 Basal / response to agonist, X4:ramp1.I:1 / response to agonist, X4:ramp1.I:2 / response to agonist, X4:ramp1.I:0.25 / response to agonist, X4:ramp1.I:0.5: % IP1; unstimulated mock = 0%, fully stimulated MRGPRX4 = 100%. Particulars: Figure 4c-f, agonist 100µM, MRGPRX4 = 100.

Assay [2] has as its target T2, MRGPRX4 + RAMP3 (Homo sapiens, UniProt Q96LA9).
T2 construct: expressed in transfected cells; host or cells: HEK293T
The experiment in a line: IP1 accumulation, MRGPRX4 coexpressed with RAMP3. The class given is cell-based. Also on record: key to IP1 Basal / response to agonist, X4:ramp3.I:0.25 / response to agonist, X4:ramp3.I:0.5 / response to agonist, X4:ramp3.I:1: % IP1; unstimulated mock = 0%, fully stimulated MRGPRX4 = 100%. The conditions noted are these: Figure 4c-f, agonist 100µM, MRGPRX4 = 100.

In assay [3] the test system is mock-transfected HEK293T cells. Description: IP1 accumulation, mock-transfected cells. Type of assay: cell-based, human. Also on record: IP1 Basal / IP1 span / IP1 Emax / IP1 accumulation, dose-response (Figure 1a) / IP1 accumulation with YM (Figure 1c) / IP1 accumulation: unit not given here. The conditions noted are these: pcDNA (mock), individual replicates.

T2 sequence (Q96LA9 whole entry): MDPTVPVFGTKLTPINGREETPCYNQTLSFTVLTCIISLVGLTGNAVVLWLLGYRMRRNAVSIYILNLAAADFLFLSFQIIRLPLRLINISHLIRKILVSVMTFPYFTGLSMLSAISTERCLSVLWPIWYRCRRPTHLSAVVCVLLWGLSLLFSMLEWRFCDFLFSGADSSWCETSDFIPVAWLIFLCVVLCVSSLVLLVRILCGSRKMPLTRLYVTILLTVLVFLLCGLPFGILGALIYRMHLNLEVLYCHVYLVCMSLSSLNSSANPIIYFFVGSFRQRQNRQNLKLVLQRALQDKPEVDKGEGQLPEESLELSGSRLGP
T1 sequence (Q96LA9 whole entry): as above

With `C[C@H](CCC(=O)NCCS(=O)(=O)O)[C@H]1CC[C@H]2[C@@H]3CC[C@@H]4C[C@H](O)CC[C@]4(C)[C@H]3C[C@H](O)[C@]12C` [TDCA, Taurodeoxycholic acid], the “response to agonist, X4:ramp1.I:0.25” value in assay [1] (X4:ramp1 1:0.25) is 91.5401 and 91.7191. Also, in assay [1] (X4:ramp1 1:0.5), the “response to agonist, X4:ramp1.I:0.5” value is 85.1903 and 91.5141. Besides, the “response to agonist, X4:ramp1.I:1” value in assay [1] (X4:ramp1 1:1) is 95.31 and 91.9832. The “response to agonist, X4:ramp1.I:2” value in assay [1] (X4:ramp1 1:2) was 89.0717 and 99.7164. Moreover, in assay [2] (X4:ramp3 1:0.25), the “response to agonist, X4:ramp3.I:0.25” value is 75.8743 and 69.8198. For the same molecule, the “response to agonist, X4:ramp3.I:0.5” value in assay [2] (X4:ramp3 1:0.5) was 71.1633 and 71.0507. Besides, the “response to agonist, X4:ramp3.I:1” value in assay [2] (X4:ramp3 1:1) is 68.5255 and 51.1881. The “IP1 accumulation, dose-response (Figure 1a)” value in assay [3] (log [agonist] (M) -4) is 0.277 and 0.4314 and 0.7552 and 0.05214 and 0.8196 and 0.004346 and 0.07799 and 0.2082 and -0.7055 and 0.02887 and 0.02154 and -0.2702; in assay [3] (log [agonist] (M) -4.95424), 0.666 and 0.2913 and 0.6803 and 0.05284 and 0.1544 and 0.254 and 0.03541 and -0.4236 and -0.5986 and 0.1648 and -0.7514 and -0.1187; in assay [3] (log [agonist] (M) -5.90849), 0.6055 and 0.3564 and 0.9177 and 0.421 and 0.4207 and 0.09062 and 0.2243 and -0.1271 and -0.5946 and 0.5044 and 0.1318 and -0.2093; in assay [3] (log [agonist] (M) -6.86273), 0.7575 and 0.6878 and 1.269 and 0.5282 and 0.9623 and 0.4904 and 0.6445 and 0.2971 and -0.08157 and 1.2983 and 1.581 and 1.374.
